Laboratory results taken from ChEMBL document CHEMBL5321290, “Discovery of the Diphenyl 6-Oxo-1,6-dihydropyridazine-3-carboxylate/carboxamide Analogue J27 for the Treatment of Acute Lung Injury and Sepsis by Targeting JNK2 and Inhibiting the JNK2-NF-κB/MAPK Pathway” (J Med Chem, 2023).
Calls of active or inactive are those of the source. The rule behind the calls is not given here.

Assays:
J774.A1 [1] = assay: Antiinflammatory activity against mouse J774A.1 cells assessed as inhibition of LPS-stimulated TNFalpha release measured at 10 uM after 30 mins by ELISA relative to control; type: functional; conditions: for inhibition at 10 µM: J774.A1, 0.5 h
J774.A1 [2] = assay: Antiinflammatory activity against mouse J774A.1 cells assessed as inhibition of LPS-stimulated IL6 release measured at 10 uM after 30 mins by ELISA relative to control; type: functional; conditions: for inhibition at 10 µM: J774.A1, 0.5 h

SMILES | inhibition (J774.A1 [1]) | inhibition (J774.A1 [2]) | inhibition at 10 µM (J774.A1 [1]) [%] | inhibition at 10 µM (J774.A1 [2]) [%]
CCc1ccccc1-n1nc(C(=O)Oc2cc(Nc3ncnc4cc(OC)c(OC)cc34)ccc2F)c(C)cc1=O | inactive | inactive | – | –
COc1ccc(-n2nc(C(=O)Nc3ccc(Oc4ccnc5cc(OC)c(OC)cc45)cc3)c(C)cc2=O)cc1 | – | inactive | 12.1 | –
CCc1ccccc1-n1nc(C(=O)Nc2ccc(Oc3ncnc4cc(OC)c(OC)cc34)cc2)c(C)cc1=O | – | – | 58 | 18.4
COc1cc2ncnc(Oc3cccc(NC(=O)c4nn(-c5ccc(C)cc5)c(=O)cc4C)c3)c2cc1OC | inactive | – | – | 47.3
COc1cc2nccc(Oc3cccc(NC(=O)c4nn(-c5ccc(F)cc5)c(=O)cc4C)c3)c2cc1OC | – | – | 20.6 | 38
CCc1ccccc1-n1nc(C(=O)Nc2ccc(Oc3ccnc4cc(OC)c(OC)cc34)cc2)c(C)cc1=O | – | – | 27.9 | 55.1
COc1cc2ncnc(Oc3ccc(NC(=O)c4nn(-c5ccc(F)cc5)c(=O)cc4C)cc3)c2cc1OC | – | – | 70.1 | 20.6
COc1cc2ncnc(Oc3ccc(NC(=O)c4nn(-c5ccc(C)cc5)c(=O)cc4C)cc3)c2cc1OC | – | – | 64 | 63
COc1cc2ncnc(Oc3ccc(NC(=O)c4nn(-c5ccccc5)c(=O)cc4C)cc3)c2cc1OC | – | – | 46.9 | 54.8
CCc1ccc(-n2nc(C(=O)Oc3cc(Nc4ncnc5cc(OC)c(OC)cc45)ccc3F)c(C)cc2=O)cc1 | – | – | 21.8 | 38.3
COc1ccc(-n2nc(C(=O)Oc3cc(Nc4ncnc5cc(OC)c(OC)cc45)ccc3F)c(C)cc2=O)cc1 | inactive | – | – | 31.9
COc1cc2ncnc(Nc3ccc(F)c(OC(=O)c4nn(-c5ccc(F)cc5)c(=O)cc4C)c3)c2cc1OC | – | – | 38.8 | 46.5
COc1cc2ncnc(Nc3ccc(F)c(OC(=O)c4nn(-c5ccc(C)cc5)c(=O)cc4C)c3)c2cc1OC | – | – | 34.9 | 48
CCc1ccc(-n2nc(C(=O)Nc3ccc(Oc4ccnc5cc(OC)c(OC)cc45)cc3)c(C)cc2=O)cc1 | – | – | 61.9 | 34.9
COc1cc2nccc(Oc3cccc(NC(=O)c4nn(-c5ccccc5)c(=O)cc4C)c3)c2cc1OC | – | inactive | 0.35 | –
COc1cc2nccc(Oc3ccc(NC(=O)c4nn(-c5ccc(F)cc5)c(=O)cc4C)cc3)c2cc1OC | inactive | – | – | 5.11
COc1cc2ncnc(Nc3ccc(F)c(OC(=O)c4nn(-c5ccccc5)c(=O)cc4C)c3)c2cc1OC | – | – | 49.6 | 32.1
COc1ccc(-n2nc(C(=O)Nc3cccc(Oc4ncnc5cc(OC)c(OC)cc45)c3)c(C)cc2=O)cc1 | inactive | – | – | 7.64
CCc1ccc(-n2nc(C(=O)Nc3cccc(Oc4ncnc5cc(OC)c(OC)cc45)c3)c(C)cc2=O)cc1 | inactive | – | – | 39
COc1cc2nccc(Oc3cccc(NC(=O)c4nn(-c5ccc(C)cc5)c(=O)cc4C)c3)c2cc1OC | inactive | inactive | – | –
COc1cc2ncnc(Oc3cccc(NC(=O)c4nn(-c5ccccc5)c(=O)cc4C)c3)c2cc1OC | inactive | inactive | – | –
COc1cc2ncnc(Nc3ccc(OC(=O)c4nn(-c5ccccc5)c(=O)cc4C)c(C)c3)c2cc1OC | inactive | – | – | 23.9
COc1cc2ncnc(Oc3cccc(NC(=O)c4nn(-c5ccc(F)cc5)c(=O)cc4C)c3)c2cc1OC | inactive | – | – | 16.1
COc1ccc(-n2nc(C(=O)Nc3cccc(Oc4ccnc5cc(OC)c(OC)cc45)c3)c(C)cc2=O)cc1 | inactive | inactive | – | –
CCc1ccccc1-n1nc(C(=O)Nc2cccc(Oc3ncnc4cc(OC)c(OC)cc34)c2)c(C)cc1=O | inactive | inactive | – | –
COc1cc2ncnc(Nc3ccc(C)c(OC(=O)c4nn(-c5ccccc5)c(=O)cc4C)c3)c2cc1OC | inactive | – | – | 20.7
COc1cc2nccc(Oc3ccc(NC(=O)c4nn(-c5ccccc5)c(=O)cc4C)cc3)c2cc1OC | – | inactive | 52 | –
COc1ccc(-n2nc(C(=O)Nc3ccc(Oc4ncnc5cc(OC)c(OC)cc45)cc3)c(C)cc2=O)cc1 | – | inactive | 57.5 | –
CCc1ccccc1-n1nc(C(=O)Nc2cccc(Oc3ccnc4cc(OC)c(OC)cc34)c2)c(C)cc1=O | – | – | 63.4 | 25.1
